Test results taken from paper PMC3914206.

Columns and labels:
Format in all cases: binding
panel of 442 kinases [1] = target: T1, panel of 442 kinases (Homo sapiens, UniProt Q07912); conditions: kinase TNK2; compound concentration 10 µM
T1 construct: purchased KINOMEscan
From the text: (§1) We assessed the selectivity of members of this scaffold using the KINOMEscan methodology across a near comprehensive panel of 442 kinases [[18,27]].

panel of 442 kinases [2] = target: T2, panel of 442 kinases (Homo sapiens, UniProt O96013); conditions: Compound Concentration 10 µM
T2 construct: purchased KINOMEscan
From the text: as §1

panel of 442 kinases [3] = target: T3, panel of 442 kinases (Homo sapiens, UniProt P80192); conditions: Compound Concentration 10 µM
T3 construct: purchased KINOMEscan
From the text: as §1

panel of 442 kinases [4] = target: T4, panel of 442 kinases (Homo sapiens, UniProt Q9BQI3); conditions: Compound Concentration 10 µM
T4 construct: purchased KINOMEscan
From the text: as §1

T2 sequence (O96013 whole entry): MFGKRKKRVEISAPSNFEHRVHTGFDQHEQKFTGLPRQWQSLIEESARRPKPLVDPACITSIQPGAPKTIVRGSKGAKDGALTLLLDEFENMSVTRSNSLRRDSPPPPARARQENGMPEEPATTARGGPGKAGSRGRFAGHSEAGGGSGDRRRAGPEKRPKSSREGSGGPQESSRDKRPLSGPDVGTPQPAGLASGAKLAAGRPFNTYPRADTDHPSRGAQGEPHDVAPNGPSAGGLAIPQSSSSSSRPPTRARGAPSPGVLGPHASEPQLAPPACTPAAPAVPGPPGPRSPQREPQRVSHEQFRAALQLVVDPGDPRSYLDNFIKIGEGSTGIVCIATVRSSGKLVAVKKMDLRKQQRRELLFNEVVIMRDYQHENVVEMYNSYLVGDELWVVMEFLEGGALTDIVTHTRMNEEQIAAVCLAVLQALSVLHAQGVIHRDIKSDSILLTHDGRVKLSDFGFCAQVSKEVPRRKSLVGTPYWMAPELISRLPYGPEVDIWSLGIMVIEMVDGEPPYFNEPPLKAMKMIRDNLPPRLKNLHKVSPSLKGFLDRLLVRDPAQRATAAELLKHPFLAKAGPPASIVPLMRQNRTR
T3 sequence (P80192 whole entry): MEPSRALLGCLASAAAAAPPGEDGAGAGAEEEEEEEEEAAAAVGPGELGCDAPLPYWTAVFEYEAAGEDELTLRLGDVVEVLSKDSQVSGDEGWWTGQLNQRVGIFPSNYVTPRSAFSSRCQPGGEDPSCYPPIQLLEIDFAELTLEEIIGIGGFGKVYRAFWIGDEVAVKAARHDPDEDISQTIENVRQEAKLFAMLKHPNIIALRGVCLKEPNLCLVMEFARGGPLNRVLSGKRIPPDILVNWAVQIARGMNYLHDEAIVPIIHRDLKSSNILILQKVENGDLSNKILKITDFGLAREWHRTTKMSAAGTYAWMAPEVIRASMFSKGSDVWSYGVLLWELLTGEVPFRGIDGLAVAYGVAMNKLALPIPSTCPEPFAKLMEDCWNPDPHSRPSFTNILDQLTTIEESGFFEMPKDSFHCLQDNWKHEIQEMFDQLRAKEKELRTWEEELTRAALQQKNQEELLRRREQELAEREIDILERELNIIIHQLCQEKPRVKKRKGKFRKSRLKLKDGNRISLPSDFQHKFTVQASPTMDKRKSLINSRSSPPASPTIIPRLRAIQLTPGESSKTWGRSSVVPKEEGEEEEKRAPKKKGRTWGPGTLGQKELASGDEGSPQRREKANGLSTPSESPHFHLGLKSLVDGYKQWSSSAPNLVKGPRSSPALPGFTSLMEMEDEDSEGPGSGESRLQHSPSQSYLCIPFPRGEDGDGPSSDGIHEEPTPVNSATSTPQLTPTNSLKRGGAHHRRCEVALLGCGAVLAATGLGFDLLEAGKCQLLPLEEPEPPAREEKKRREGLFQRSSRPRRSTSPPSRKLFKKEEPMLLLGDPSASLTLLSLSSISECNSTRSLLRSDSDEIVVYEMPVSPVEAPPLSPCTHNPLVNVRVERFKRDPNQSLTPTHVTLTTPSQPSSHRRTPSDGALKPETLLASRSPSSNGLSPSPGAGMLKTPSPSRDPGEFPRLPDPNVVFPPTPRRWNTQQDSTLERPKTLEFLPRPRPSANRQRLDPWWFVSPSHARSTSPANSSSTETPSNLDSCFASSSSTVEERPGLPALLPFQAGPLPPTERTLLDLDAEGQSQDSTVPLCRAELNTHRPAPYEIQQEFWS
T1 sequence (Q07912 whole entry): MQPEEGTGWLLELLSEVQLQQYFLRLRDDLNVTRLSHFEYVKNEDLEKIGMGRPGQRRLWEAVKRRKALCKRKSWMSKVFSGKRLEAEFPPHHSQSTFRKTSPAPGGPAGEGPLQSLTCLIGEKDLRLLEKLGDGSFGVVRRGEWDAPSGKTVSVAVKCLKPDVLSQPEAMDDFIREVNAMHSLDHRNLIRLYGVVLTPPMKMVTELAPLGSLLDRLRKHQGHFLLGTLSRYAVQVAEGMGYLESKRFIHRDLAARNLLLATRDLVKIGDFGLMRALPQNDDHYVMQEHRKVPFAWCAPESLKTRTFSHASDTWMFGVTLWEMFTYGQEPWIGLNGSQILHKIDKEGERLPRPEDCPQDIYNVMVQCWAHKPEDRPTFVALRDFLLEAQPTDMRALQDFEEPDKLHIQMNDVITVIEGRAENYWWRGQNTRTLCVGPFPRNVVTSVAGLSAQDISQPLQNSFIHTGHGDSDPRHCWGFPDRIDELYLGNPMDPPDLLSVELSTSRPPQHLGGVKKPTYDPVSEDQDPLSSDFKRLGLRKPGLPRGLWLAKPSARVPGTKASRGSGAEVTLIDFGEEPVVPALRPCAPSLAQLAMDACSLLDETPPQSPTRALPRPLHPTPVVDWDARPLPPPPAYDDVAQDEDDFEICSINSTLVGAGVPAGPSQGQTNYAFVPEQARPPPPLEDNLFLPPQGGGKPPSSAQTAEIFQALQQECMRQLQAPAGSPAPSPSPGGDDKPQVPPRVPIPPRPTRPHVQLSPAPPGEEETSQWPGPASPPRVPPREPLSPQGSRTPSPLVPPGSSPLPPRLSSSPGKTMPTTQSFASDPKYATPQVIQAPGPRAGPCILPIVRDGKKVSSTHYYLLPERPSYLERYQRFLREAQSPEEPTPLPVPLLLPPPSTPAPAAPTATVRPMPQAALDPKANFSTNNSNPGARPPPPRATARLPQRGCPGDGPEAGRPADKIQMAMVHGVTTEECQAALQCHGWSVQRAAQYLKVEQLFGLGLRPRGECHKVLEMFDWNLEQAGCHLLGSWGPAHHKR
T4 sequence (Q9BQI3 whole entry): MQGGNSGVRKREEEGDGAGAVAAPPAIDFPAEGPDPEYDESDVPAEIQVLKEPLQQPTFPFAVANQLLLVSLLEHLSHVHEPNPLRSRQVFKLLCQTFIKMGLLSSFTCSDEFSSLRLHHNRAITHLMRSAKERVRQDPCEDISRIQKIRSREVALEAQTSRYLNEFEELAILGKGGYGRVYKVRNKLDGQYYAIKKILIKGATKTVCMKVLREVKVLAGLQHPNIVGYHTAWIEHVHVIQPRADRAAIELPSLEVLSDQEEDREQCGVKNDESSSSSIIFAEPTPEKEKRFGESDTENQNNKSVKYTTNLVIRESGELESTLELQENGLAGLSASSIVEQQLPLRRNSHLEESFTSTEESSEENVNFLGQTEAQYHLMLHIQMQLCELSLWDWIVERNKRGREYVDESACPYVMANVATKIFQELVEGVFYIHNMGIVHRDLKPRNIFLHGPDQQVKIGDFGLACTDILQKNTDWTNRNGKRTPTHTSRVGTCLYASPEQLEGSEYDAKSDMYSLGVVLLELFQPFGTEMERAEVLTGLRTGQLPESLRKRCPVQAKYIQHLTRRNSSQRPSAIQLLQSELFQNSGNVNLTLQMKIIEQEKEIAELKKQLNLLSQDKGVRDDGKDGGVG

COc1cc(C(=O)N2CCC(N3CCN(C)CC3)CC2)ccc1Nc1ncc2c(n1)N(C1CCCC1)c1ccccc1C(=O)N2C [Compound 25, 11-cyclopentyl-2-((2-methoxy-4-(4-(4-methylpiperazin-1-yl)piperidine-1-carbonyl)phenyl)amino)-5-methyl-5H-benzo[e]pyrimido[5,4-b][1,4]diazepin-6(11H)-one] was tested, and the “% Ctrl, TNK2” value (panel of 442 kinases [1]) was 35 % Ctrl, the “KINOMEscan: PAK4” value (panel of 442 kinases [2]) was 91 and the “KINOMEscan: MLK1” value (panel of 442 kinases [3]) was 100. For the same compound, the “KINOMEscan: EIF2AK1” value (panel of 442 kinases [4]) was 100.

For CCOc1cc(C(=O)N2CCC(N3CCN(C)CC3)CC2)ccc1Nc1ncc2c(n1)N(C1CCCC1)c1ccccc1C(=O)N2C [Compound 26], the “% Ctrl, TNK2” value (panel of 442 kinases [1]) was 80 % Ctrl, the “KINOMEscan: PAK4” value (panel of 442 kinases [2]) was 100 and the “KINOMEscan: MLK1” value (panel of 442 kinases [3]) was 100. For the same compound, the “KINOMEscan: EIF2AK1” value (panel of 442 kinases [4]) was 100.

In the case of COc1cc(C(=O)N2CCC(N3CCN(C)CC3)CC2)ccc1Nc1ncc2c(n1)N1CCc3cccc(c31)C(=O)N2C [Compound 24], the “% Ctrl, TNK2” value (panel of 442 kinases [1]) is reported as 43 % Ctrl and the “KINOMEscan: MLK1” value (panel of 442 kinases [3]) is reported as 85.

In the case of COc1cc(C(=O)N2CCC(N3CCN(C)CC3)CC2)ccc1Nc1ncc2c(n1)N(C)c1ccccc1C(=O)N2C [15 (LRRK2-IN-1)], the “% Ctrl, TNK2” value (panel of 442 kinases [1]) is reported as 18 % Ctrl, the “KINOMEscan: PAK4” value (panel of 442 kinases [2]) is reported as 94 and the “KINOMEscan: MLK1” value (panel of 442 kinases [3]) is reported as 93. The “KINOMEscan: EIF2AK1” value (panel of 442 kinases [4]) was 100.
